# In patent US11241480B2, “Methods for modulation of dietary and microbial exposure with compositions comprising an EGFR ligand” (Washington University, priority 2017, dated 2022):
# Columns and labels:
# [1] = tested on: colonic LP Tregs (FoxP3+); test: Colonic LP Treg/iTreg populations by flow cytometry after early-life manipulation; type: in vivo, mice
# Description: EGFRi treatment: Mice were injected with 500 μg/kg tyrphostin AG1478 (an inhibitor of EGFR phosphorylation) in the neonatal, post-neonatal, or weaned phase on DOLs noted in the text or figure legends.
# Isolation of cellular populations and flow cytometry: Sls or colons were harvested, rinsed with PBS, and Peyer's patches or colonic patches were removed. Epithelial cellular populations were released by incubating for 15 min three times in a 37° C. rotating incubator in HBSS media (BioWhittaker, Walkersville, Md.) containing 5 mM EDTA, and splenic and LP cellular populations were isolated as described. SI and colonic APCs were identified as 7AAD^−, CD45^+, CD11c^+, MHCII^+ for flow cytometric sorting. FoxP3 subpopulations were identified as 7AAD^−, CD45^+, CD3^+, CD4^+, FoxP3^+, and either RORγt^+ or Helios^+. For intracellular antigens and cytokines, cells were fixed, permeabilized overnight, and stained per the manufacturers recommendations (eBioscience). Flow cytometry was performed with a FACScan cytometer (BD Biosciences, San Jose, Calif.) retrofitted with additional lasers. Data acquisition was performed using CellQuest (BD Biosciences) and Rainbow (Cytek, Fremont, Calif.) or FlowJo software (Tree Star, Ashland, Oreg.). Data analysis was performed on a Macintosh computer running FlowJo software.
# [2] = Serum cytokines and immunoglobulins by ELISA/multiplex after Ova rechallenge; type: in vivo, mice; details: dietary Ova DOL 0-30; EGFRi DOL 6 and 8 or DOL 24 and 26
# Description: Measurement of cytokines, EGF, and immunoglobulins: Cytokines were measured using the MILLIPLEX MAP Mouse Cytokine/Chemokine Magnetic Bead Panel (see e.g., FIG. 16D; EMD Millipore) or using ELISAs for EGF (R&D systems), IL13 (eBioscience), Eotaxin (R&D systems), IgE (eBiosciences), and MCPT1 (eBioscience) per the manufacturers recommendations. An ELISA comprised of Ova (Sigma-Aldrich A5503) for capture, and monoclonal anti-IgE antibody conjugated to alkaline phosphatase (Southern Biotech 1110-04) for detection, was used to measure Ova specific IgE.
# [3] = tested on: CBir1 T cells; test: Adoptive transfer of CBir1/DP1 TCR transgenic T cells; type: in vivo, mice
# Description: (§1) Isolation of cellular populations and flow cytometry: Small intestines or colons were harvested, rinsed with PBS, and Peyer's patches or colonic patches were removed. Epithelial cellular populations were released by incubating for 15 min three times in a 37° C. rotating incubator in HBSS media (BioWhittaker, Walkersville, Md.) containing 5 mM EDTA as previously described. Isolation of splenic, MLN and lamina propria (LP) cellular populations was performed as previously described. In some experiments, single cell suspensions of MLN were cultured in cell culture media for three days as previously described. The first wash of HBSS+EDTA was used to isolate goblet cells as below. SI and colonic LP-MNPs were identified as 7AAD^−, CD45^+, CD11c^+, MHCII^+for flow cytometric sorting. Goblet cells were identified as CD45^−, CD24^−CK18^+, UEA-I^+for flow cytometric sorting as previously described. For intracellular antigens and cytokines, cells were fixed and permeabilized overnight and stained per the manufacturers recommendations (eBioscience). Flow cytometry was performed with a FACScan cytometer (BD Biosciences, San Jose, Calif.) retrofitted with additional lasers. Data acquisition was performed using CellQuest (BD Biosciences) and Rainbow (Cytek,Fremont, Calif.) or FlowJo software (Tree Star, Ashland, OR). Data analysis was performed on a Macintosh computer running FlowJo software.
# (§2) Treatments to alter GAPs: Acute induction or inhibition of GAPs was performed as previously described. Mice were given 500 μg/kg tyrphostin AG1478 i.p. to inhibit of EGFR activation, 10 mg/kg U0126 i.p. to inhibit MAPK/ERK (MEK1/MEK2) activation, 150 μg/kg carbamylcholine (acetycholine analogue) i.p., 100 mg/kg tropicamide (mAChR4 selective antagonist) i.p., 1 μg recombinant murine EGF (Shenandoah) in 20 μl PBS intracolonic, 10 μg LPS intraluminally, or 100 μl stomach contents from a DOL10 mice intraluminally, or 100 μl heat killed cecal contents from SPF housed adult mice intraluminally. Reagents from Sigma Aldrich, St. Louis, Mo. unless otherwise noted.
# (§3) Adoptive T cell Transfer: 10^5 splenic CD4^+ T cells from CD45.1 CBir1 TCR transgenic mice, CD45.1+ DP1 TCR transgenic mice, or CD45.1+ OTII TCR transgenic mouse were enriched by magnetic particles (Stemcell Technology, #19752 Vancouver, British Columbia, Canada) and injected i.v. into mice. In some experiments cells were labeled with CFSE prior to injection, and MLNs of recipient mice were analyzed three days posts transfer. Mice were analyzed seven days posts transfer to evaluate the presence of the transferred population in the LP. In some experiments, in FIG. 34, FIG. 37, and FIG. 39, cells were transferred on DOL 16, and analyzed on DOL 30 or after 8 days of DSS treatment on DOL 38.
# [4] = tested on: C57BL/6 mice; test: DSS colitis after early-life manipulation of GAPs; type: in vivo; details: 3% DSS DOL30-38
# Description: as §2, §3
# DSS colitis: Mice were given DSS (36,000-50,000 MW, Reagent grade, MP Biomedicals) in drinking water ad libitum for eight days. Math1^fl/fl ERT2^ViCre mice and litter mates were given 1.5% DSS due to their increased susceptibility to disease. Weight was measured daily. On the final day, colons were measured for length to assess shortening, and were fixed in buffered formalin and embedded in paraffin for sectioning. H/E sections were scored for disease as before. In some experiments, colon LP was isolated on the final day of DSS treatment to analyze endogenous T cell and transferred CBir1 T cell populations.
# [5] = tested on: colon draining MLN; test: MLN culture cytokines and colon H/E histology on DOL35; type: in vivo; details: DOL35 mice; for colon pathology (H/E sections): EGFRi DOL14 and 16 or DOL24 and 26, intracolonic EGF DOL10-21
# Description: as §1
# Measurement of cytokines, EGF, and immunoglobulins: Cytokines and EGF were measured using the using ELISAs for EGF (R&D systems), phosphorylated MAPK, phosphorylated EGFR, IL17 (eBioscience), IFNγ and IL-10, (R&D systems) per the manufacturers recommendations. Luminal EGF was measured in stomach, SI, and colonic contents; to isolate contents the stomach was opened and contents was added to 1 ml PBS. […] Phosphorylated MAPK, and phosphorylated EGFR was measured on epithelial cells from the SI or colon isolated by one 15 minute wash with HBSS+EDTA as described above. Cytokines were measured on supernatants from cultured MLNs.
# [6] = EGFR inhibitors on DOL24 and 26 post-weaning
# [7] = EGF on DOL10-21 or EGFR inhibition on DOL 24 and 26
# [8] = EGFR inhibitors on DOL14 and 16 (post-neonatal phase)
# [9] = intracolonic EGF DOL10-21, transfer DOL16
compound,measurement,setting,value
"COc1cc2ncnc(Nc3cccc(Cl)c3)c2cc1OC [EGFRi, tyrphostin AG1478]","colonic LP Treg population, pattern and timing","[1]; EGFRi in neonatal phase, DOL 6 and 8",early peaks in colonic LP Tregs; these peaks rapidly decreased and were not maintained
same,"colonic LP Treg population, pattern and timing","[1]; EGFRi in post-neonatal phase, DOL 14 and 16",resembled the endogenous Treg population of non-manipulated animals
same,"colonic LP Treg population, pattern and timing",[1]; EGFRi on DOL 24 and 26 (beyond weaning),rapidly lost the colonic Treg population
same,persistence of the diminished iTreg population,[1]; after manipulation of colonic GAPs (EGFRi neonatal or weaning phase),at least 8 months
same,"other immunoglobulins, Th1 and Th17 cytokines in serum",[2],did not have elevations in other immunoglobulins or prototypic Th1 or Th17 cytokines
same,serum Th2 mediators and IgE,[2],"markedly elevated serum levels of Th2 mediators, and global and antigen-specific IgE"
same,Foxp3 expression of transferred CBir1 T cells on DOL30,[3]; [6],significantly less Foxp3
same,inflammatory cytokine expression of CBir1 T cells on DOL30,[3]; [6],significantly greater proportion of the population expressed inflammatory cytokines
same,Foxp3 expression of CBir1 and DP1 T cells in colon LP seven days post transfer,"[3]; antigen encounter post-weaning, DOL28, under EGFR inhibition",little Foxp3 expression
same,Foxp3 and inflammatory cytokine expression of transferred CBir1 T cells on DOL30,"[3]; inhibition of EGFR on DOL14 and 16 (post-neonatal phase), vs controls",no significant difference in the expression of Foxp3+ or inflammatory cytokines
same,expansion of transferred CBir1 T cells in colon LP on DOL30,[3]; inhibition of EGFR on DOL14 and 16 or on DOL24 and 26,did not affect the expansion of transferred CBir1 T cells
same,expansion and activation of transferred CBir1 or DP1 cells in the MLN,"[3]; post-weaning mice (DOL28), three days after transfer",allowed adoptively transferred CBir1 or DP1 cells to expand and become activated
same,Foxp3 expression of transferred CBir1 T cells after DSS,[4]; [7],significantly reduced Foxp3 expression
same,"disease severity in DSS colitis (histology, colon length)",[4]; [7],developed significantly worse disease
same,expansion of CBir1 T cells in colon LP after DSS,[4]; [7],significant expansion of CBir1 T cells in colon LP
same,inflammatory cytokines of transferred CBir1 T cells after DSS,[4]; [7],significantly increased inflammatory cytokines
same,weight loss in DSS colitis,[4]; [7],lost significantly more weight
same,Foxp3 and inflammatory cytokine expression of CBir1 T cells after DSS,[4]; [8],continued expressing Foxp3 but not inflammatory cytokines
same,expansion of CBir1 T cells in colon LP after DSS,[4]; [8],did not expand further in the colon LP
same,inflammatory cytokine production in the colon draining MLN,[5]; EGFRi post-weaning (DOL24 and 26),results in inflammatory cytokine production in the colon draining MLN
same,colon pathology (H/E sections),[5],does not induce overt pathologic changes
"EGF: recombinant murine EGF (Shenandoah); EGFR ligand, given luminally or intracolonically",Foxp3 expression of transferred CBir1 T cells on DOL30,[3]; [9],significantly less Foxp3
same,expansion of transferred CBir1 T cells in colon LP on DOL30,[3]; [9],significantly less expansion
same,"inflammatory cytokine expression (IL-17, TNFα, IFNγ) of CBir1 T cells on DOL30","[3]; intracolonic EGF DOL10-21, vs PBS treated control mice",significantly larger proportion of the remaining CBir1 T cell population expressed inflammatory cytokines
same,expansion of CBir1 cells in the colon draining MLN three days post transfer,"[3]; post-neonatal mice, intracolonic recombinant EGF (1 μg daily DOL10-21)",failed to expand
same,Foxp3 expression of transferred CBir1 T cells after DSS,[4]; [7],significantly reduced Foxp3 expression
same,"disease severity in DSS colitis (histology, colon length)",[4]; [7],developed significantly worse disease
same,expansion of CBir1 T cells in colon LP after DSS,[4]; [7],significant expansion of CBir1 T cells in colon LP
same,inflammatory cytokines of transferred CBir1 T cells after DSS,[4]; [7],significantly increased inflammatory cytokines
same,weight loss in DSS colitis,[4]; [7],lost significantly more weight
same,colon pathology (H/E sections),[5],no overt pathology
